Laboratory results taken from US10246426B2, “Triazole compounds as T-type calcium channel blockers” (IDORSIA PHARMACEUTICALS LTD, priority 2014, dated 2019).

Target: Cav3.2 (Homo sapiens, UniProt O95180)
Assay: Calcium flux FLIPR assay, HEK293 cells recombinantly expressing Cav3.2
Type: cell-based
Conditions: Cav3.2-channel, Ca2+ entry stimulated by 10 mM CaCl2
Summary of the method: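 Fluo-4-loaded HEK293 cells stably expressing Cav3.2, seeded overnight at 37 °C; compounds diluted in TEAC buffer (pH 7.2) and preincubated 3 min before Ca2+ entry triggered with CaCl2 at 10 mM final. Area under FLIPR fluorescence trace fitted sigmoidally; IC50 relative to vehicle signal.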

Cav3.2, sequence (O95180 whole entry, looked up): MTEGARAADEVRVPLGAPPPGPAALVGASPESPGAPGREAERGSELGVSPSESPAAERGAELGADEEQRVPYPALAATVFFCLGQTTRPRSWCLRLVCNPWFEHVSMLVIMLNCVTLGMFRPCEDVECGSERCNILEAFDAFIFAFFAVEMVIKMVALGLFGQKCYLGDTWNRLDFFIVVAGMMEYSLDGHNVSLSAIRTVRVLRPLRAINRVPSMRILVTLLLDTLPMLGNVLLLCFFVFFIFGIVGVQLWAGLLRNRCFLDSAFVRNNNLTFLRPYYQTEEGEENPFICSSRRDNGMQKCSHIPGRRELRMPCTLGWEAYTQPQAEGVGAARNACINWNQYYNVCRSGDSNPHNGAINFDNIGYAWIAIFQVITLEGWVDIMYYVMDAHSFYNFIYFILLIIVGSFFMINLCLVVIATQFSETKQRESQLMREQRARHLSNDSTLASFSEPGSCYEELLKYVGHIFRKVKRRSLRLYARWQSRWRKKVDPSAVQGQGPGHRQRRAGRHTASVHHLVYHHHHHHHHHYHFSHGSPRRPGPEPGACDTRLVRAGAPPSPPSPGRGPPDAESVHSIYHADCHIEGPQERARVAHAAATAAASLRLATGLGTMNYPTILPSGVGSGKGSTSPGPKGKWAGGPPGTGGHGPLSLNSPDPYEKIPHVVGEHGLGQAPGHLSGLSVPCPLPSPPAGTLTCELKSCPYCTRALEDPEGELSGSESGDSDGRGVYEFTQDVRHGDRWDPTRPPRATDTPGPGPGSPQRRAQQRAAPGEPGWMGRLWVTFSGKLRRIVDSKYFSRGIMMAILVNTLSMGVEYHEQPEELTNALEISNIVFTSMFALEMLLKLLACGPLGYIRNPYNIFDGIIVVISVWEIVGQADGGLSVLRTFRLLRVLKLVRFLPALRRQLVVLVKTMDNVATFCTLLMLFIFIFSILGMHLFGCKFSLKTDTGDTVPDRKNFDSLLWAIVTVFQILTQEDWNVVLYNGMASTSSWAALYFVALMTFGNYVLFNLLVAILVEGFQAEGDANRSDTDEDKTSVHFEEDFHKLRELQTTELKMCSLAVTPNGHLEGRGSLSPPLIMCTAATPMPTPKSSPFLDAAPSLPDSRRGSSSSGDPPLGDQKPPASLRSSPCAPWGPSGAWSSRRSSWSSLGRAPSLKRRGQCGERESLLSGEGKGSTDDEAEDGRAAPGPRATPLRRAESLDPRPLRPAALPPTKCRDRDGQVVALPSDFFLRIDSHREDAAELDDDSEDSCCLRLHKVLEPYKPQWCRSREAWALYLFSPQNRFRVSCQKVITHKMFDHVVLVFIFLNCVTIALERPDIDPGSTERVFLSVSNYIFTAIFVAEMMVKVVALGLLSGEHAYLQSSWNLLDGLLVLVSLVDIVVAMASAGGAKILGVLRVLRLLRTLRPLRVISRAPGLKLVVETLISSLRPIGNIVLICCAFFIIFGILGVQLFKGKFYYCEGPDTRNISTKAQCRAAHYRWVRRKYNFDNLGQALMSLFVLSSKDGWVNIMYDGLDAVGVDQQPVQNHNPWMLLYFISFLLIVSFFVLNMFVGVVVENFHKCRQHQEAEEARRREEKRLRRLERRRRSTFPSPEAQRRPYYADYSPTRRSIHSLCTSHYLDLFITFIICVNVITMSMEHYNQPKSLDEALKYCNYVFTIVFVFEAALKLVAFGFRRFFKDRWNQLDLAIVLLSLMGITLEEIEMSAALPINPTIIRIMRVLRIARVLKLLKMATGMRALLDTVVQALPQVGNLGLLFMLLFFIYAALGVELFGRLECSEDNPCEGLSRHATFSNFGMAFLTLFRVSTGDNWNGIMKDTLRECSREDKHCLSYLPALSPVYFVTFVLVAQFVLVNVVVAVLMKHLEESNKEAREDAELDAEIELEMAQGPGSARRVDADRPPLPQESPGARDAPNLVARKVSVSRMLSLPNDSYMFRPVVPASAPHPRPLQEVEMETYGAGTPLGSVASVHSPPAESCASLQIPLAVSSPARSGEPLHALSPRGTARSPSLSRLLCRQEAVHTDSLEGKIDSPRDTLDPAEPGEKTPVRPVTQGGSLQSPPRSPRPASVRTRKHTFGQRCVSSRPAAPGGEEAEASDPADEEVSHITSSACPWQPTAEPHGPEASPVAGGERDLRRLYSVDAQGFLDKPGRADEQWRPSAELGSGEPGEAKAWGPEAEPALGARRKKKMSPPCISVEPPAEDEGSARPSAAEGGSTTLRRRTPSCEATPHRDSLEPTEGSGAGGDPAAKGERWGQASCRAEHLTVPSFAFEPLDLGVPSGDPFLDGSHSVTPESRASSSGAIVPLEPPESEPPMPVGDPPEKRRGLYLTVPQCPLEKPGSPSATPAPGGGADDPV

SMILES	IC50 [nM]
CC1(c2ccc(CC(=O)Nc3cnn(Cc4ccc(C#N)c(F)c4)n3)cc2)COC1 [Example 72, N-[2-(4-Cyano-3-fluoro-benzyl)-2H-[1,2,3]triazol-4-yl]-2-[4-(3-methyl-oxetan-3-yl)-phenyl]-acetamide]	74
Cn1nc(C2CC2)c2cc(CC(=O)Nc3cnn(Cc4ccc(F)c(F)c4)n3)ccc21 [Example 35, 2-(3-Cyclopropyl-1-methyl-1H-indazol-5-yl)-N-[2-(3,4-difluoro-benzyl)-2H-[1,2,3]triazol-4-yl]-acetamide]	29
COc1cc(Cn2ncc(NC(=O)Cc3ccc4c(c3)c(C)cn4C)n2)ccc1F [Example 118, 2-(1,3-Dimethyl-1H-indol-5-yl)-N-[2-(4-fluoro-3-methoxy-benzyl)-2H-[1,2,3]triazol-4-yl]-acetamide]	63
COc1cc(Cn2ncc(NC(=O)Cc3ccc4cnn(C)c4c3)n2)cc(F)c1F [Example 225, N-[2-(3,4-Difluoro-5-methoxy-benzyl)-2H-[1,2,3]triazol-4-yl]-2-(1-methyl-1H-indazol-6-yl)-acetamide]	560
COc1ccc(Cn2ncc(NC(=O)Cc3ccc(N4CCCC4)nc3)n2)cc1F [Example 156, N-[2-(3-Fluoro-4-methoxy-benzyl)-2H-[1,2,3]triazol-4-yl]-2-(6-pyrrolidin-1-yl-pyridin-3-yl)-acetamide]	70
COc1ccc(Cn2ncc(NC(=O)Cc3ccc(C(C)C)cc3)n2)cc1 [Example 25, 2-(4-Isopropyl-phenyl)-N-[2-(4-methoxy-benzyl)-2H-[1,2,3]triazol-4-yl]-acetamide]	33
COc1ccc(Cn2ncc(NC(=O)Cc3ccc(N4CCC(F)(F)C4)nc3)n2)cc1 [Example 59]	60
Cc1cc(Cn2ncc(NC(=O)Cc3ccc(OC4CC(F)(F)C4)cc3)n2)ccc1C#N [Example 166, N-[2-(4-Cyano-3-methyl-benzyl)-2H-[1,2,3]triazol-4-yl]-2-[4-(3,3-difluoro-cyclobutoxy)-phenyl]-acetamide]	33
Cc1ccc(Cn2ncc(NC(=O)Cc3ccc(C4(F)COC4)cc3)n2)cc1C#N [Example 201, N-[2-(3-Cyano-4-methyl-benzyl)-2H-[1,2,3]triazol-4-yl]-2-[4-(3-fluoro-oxetan-3-yl)-phenyl]-acetamide]	310
COc1ccc(Cn2ncc(NC(=O)Cc3ccc(OCC4COC4)cc3)n2)cc1F [Example 120, N-[2-(3-Fluoro-4-methoxy-benzyl)-2H-[1,2,3]triazol-4-yl]-2-[4-(oxetan-3-ylmethoxy)-phenyl]-acetamide]	550
Cc1ccc(Cn2ncc(NC(=O)Cc3ccc(C(C)C)cc3)n2)cc1C#N [Example 216, N-[2-(3-Cyano-4-methyl-benzyl)-2H-[1,2,3]triazol-4-yl]-2-(4-isopropyl-phenyl)-acetamide]	74
CC(C)(C)c1ccc(CC(=O)Nc2cnn(Cc3ccc(OC(F)F)cc3)n2)cc1 [Example 88, 2-(4-tert-Butyl-phenyl)-N-[2-(4-difluoromethoxy-benzyl)-2H-[1,2,3]triazol-4-yl]-acetamide]	56
N#Cc1ccc(Cn2ncc(NC(=O)Cc3ccc(C4(F)COC4)cc3)n2)cc1 [Example 198, N-[2-(4-Cyano-benzyl)-2H-[1,2,3]triazol-4-yl]-2-[4-(3-fluoro-oxetan-3-yl)-phenyl]-acetamide]	130
